Test results published in patent US20050020588A1, “Cysteine protease inhibitors” (priority 1999, published 2005).
pKi: −log10 of the molar value. Like-named read-outs stand apart in the source and are kept apart here.

What was measured:
Mammalian Cathepsin S = Mammalian Cathepsin S (Homo sapiens, UniProt P25774); assay: Ki competitive inhibition, mammalian cathepsin S; type: biochemical; details: for Ki: Table 2, Human, read-out: Ki (μM) Human, Mammalian Cathepsin S
Description: (§1) Cathepsin S (Mammalian, murine and rat)
(§2) Assays were performed in 100 mM sodium phosphate, 100 mM NaCl, pH 6.5 (buffer) in white 384 well plates (Coming Costar). Eight inhibitors were assayed per plate.
(§3) Inhibitor dilutions were performed on a 96 well V-bottomed polypropylene plate (Corning Costar). 100 μl of buffer was placed in wells 2-5 and 7-12 of rows A, B, C and D. Sufficient of each inhibitor at 10 mM in DMSO was placed into wells A1-D1 and A6-D6 to give the desired final concentration when the volume in the well was made up to 200 μl with buffer. Column 1 was made up to 200 μl with buffer, mixed by aspirating and dispensing 100 μl in the well, and 100 μl transferred to column 2. The pipette tips were changed and the mixing and transferral repeated to column 5. This process was repeated for columns 6-10.
(§4) Substrate dilutions were performed on a 96 deep well polypropylene plate (Beckman Coulter). 280 μl of buffer was placed in wells B-H of columns 1 and 2.70 μl of 10 mM boc-Val-Leu-Lys-AMC was placed in A1 and A2. 2×250 μl of buffer was added to wells A1 and A2, mixed by aspirating and dispensing 280 μl in the well, and 280 μl transferred to row B. The pipette tips were changed and the process repeated down the plate to row H.
(§5) Column 1 of the substrate dilution plate was distributed at 10 μl per well into alternate rows beginning at row A. Column 2 was distributed to alternate rows beginning at row B. Row A of the inhibitor dilution plate was distributed at 10 μl per well to alternate rows and columns starting at A1. Row B was distributed to alternate rows and columns starting at A2. Row C was distributed to alternate rows and columns starting at B1 and row D was distributed to alternate rows and columns starting at B2. The assay was started by the addition of 30 μl per well of 20 nM cathepsin S in buffer containing 10 mM 2-mercaptoethanol.
(§6) Data were saved as text files and imported into Excel. The initial rates were determined by linear regression and then fitted to the competitive inhibition equation using SigmaPlot.

Murine Cathepsin S = Murine Cathepsin S (Mus musculus, UniProt O70370); assay: Ki competitive inhibition, murine cathepsin S; type: biochemical; details: for Ki: Table 2, Mouse, read-out: Ki (μM) Mouse, Murine Cathepsin S
Description: as §1, §2, §3, §4, §5, §6

Rat Cathepsin S = Rat Cathepsin S (Rattus norvegicus, UniProt Q02765); assay: Ki competitive inhibition, rat cathepsin S; type: biochemical; details: for Ki: Table 2, Rat, read-out: Ki (μM) Rat, Rat Cathepsin S
Chain of Rat Cathepsin S (Q02765 113-330): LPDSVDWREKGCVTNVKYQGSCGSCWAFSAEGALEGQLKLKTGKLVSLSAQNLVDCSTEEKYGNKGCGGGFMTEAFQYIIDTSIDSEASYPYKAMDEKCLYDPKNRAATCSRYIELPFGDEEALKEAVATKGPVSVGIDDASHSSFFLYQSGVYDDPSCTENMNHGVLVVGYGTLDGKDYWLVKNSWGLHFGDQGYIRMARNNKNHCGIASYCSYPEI
Description: as §1, §2, §3, §4, §5, §6

Mammalian Cathepsin L = Mammalian Cathepsin L (Homo sapiens, UniProt P07711); assay: Ki competitive inhibition, cathepsin L; type: biochemical
Chain of Mammalian Cathepsin L (P07711 114-333): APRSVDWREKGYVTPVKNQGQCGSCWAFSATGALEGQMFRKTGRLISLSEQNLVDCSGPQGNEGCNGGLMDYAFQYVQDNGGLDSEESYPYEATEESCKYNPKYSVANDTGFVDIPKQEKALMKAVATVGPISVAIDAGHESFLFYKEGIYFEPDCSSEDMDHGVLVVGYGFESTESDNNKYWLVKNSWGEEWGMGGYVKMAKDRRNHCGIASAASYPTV
Description: as §6
(§7) Assays were performed essentially as above. For cathepsin L, the buffer used was 100 mM sodium acetate, 1 mM EDTA, pH 5.5 and the substrate was D-Val-Leu-Lys-AMC with a highest concentration of 100 μM. For cathepsin K, the buffer used was 100 mM MES/Tris, 1 mM EDTA, pH 7.0 and the substrate was D-Ala-Leu-Lys-AMC with a highest concentration of 250 μM.

Mammalian Cathepsin K = biological target: T1, Mammalian Cathepsin K (Homo sapiens, UniProt P43235); assay: Ki competitive inhibition, cathepsin K; type: biochemical
T1 sequence (P43235 115-329): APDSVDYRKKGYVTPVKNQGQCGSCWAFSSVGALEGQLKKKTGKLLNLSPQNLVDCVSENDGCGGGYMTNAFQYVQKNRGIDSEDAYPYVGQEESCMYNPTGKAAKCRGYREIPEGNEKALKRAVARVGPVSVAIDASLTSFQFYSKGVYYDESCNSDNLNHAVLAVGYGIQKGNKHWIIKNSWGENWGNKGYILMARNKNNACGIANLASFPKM
Description: as §7
Convenient assays for cathepsin K arere carried out using human recombinant enzyme. Standard assay conditions for the determination of kinetic constants used a fluorogenic peptide substrate, typically H-D-Ala-Leu-Lys-AMC, and were determined in either 100 mM Mes/Tris, pH 7.0 containing 1 mM EDTA and 10 mM 2-mercaptoethanol or 100 mM Na acetate, pH 5.5 containing 5 mM EDTA and 20 mM cysteine. The enzyme concentration used was 5 nM. The stock substrate solution was prepared at 10 mM in DMSO. Screens were carried out at a fixed substrate concentration of 60 μM and detailed kinetic studies with doubling dilutions of substrate from 250 μM. The total DMSO concentration in the assay was kept below 3%. All assays were conducted at ambient temperature. Product fluorescence (excitation at 390 nm, emission at 460 nm) was monitored with a Labsystems Fluoroskan Ascent fluorescent plate reader. Product progress curves were generated over 15 minutes following generation of AMC product.
Potential inhibitors are screened using the above assay with variable concentrations of test compound. Reactions were initiated by addition of enzyme to buffered solutions of substrate and inhibitor. Ki values were calculated according to equation 1 [formula] where ν0 is the velocity of the reaction, V is the maximal velocity, S is the concentration of substrate with Michaelis constant of KM, and I is the concentration of inhibitor. Determination of Falcipain 2 Proteolytic Catalytic Activity

[1] = Oral bioavailability in mice; details: mouse, in vivo, dosed i.v. and orally at 10 mg/kg to mice, read-out: oral bioavailability % (F)
[2] = Table 1, first line of each CAP-P2 block, read-out: Ki competitive inhibition measurements vs Mammalian Cathepsin S
[3] = Table 1, second line of each CAP-P2 block, read-out: Ki competitive inhibition measurements vs Mammalian Cathepsin L
[4] = Table 1, third line of each CAP-P2 block, read-out: Ki competitive inhibition measurements vs Mammalian Cathepsin K

Chain of Mammalian Cathepsin S (P25774 115-331): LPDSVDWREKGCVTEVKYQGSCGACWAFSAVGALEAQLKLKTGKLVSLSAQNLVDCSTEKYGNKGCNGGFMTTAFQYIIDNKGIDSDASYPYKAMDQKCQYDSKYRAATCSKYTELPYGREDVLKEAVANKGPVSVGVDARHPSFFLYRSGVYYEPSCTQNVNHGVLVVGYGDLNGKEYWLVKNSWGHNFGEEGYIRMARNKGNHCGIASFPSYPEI

pKi (Mammalian Cathepsin S; [2])	pKi (Mammalian Cathepsin L; [3])	pKi (Mammalian Cathepsin K; [4])	SMILES	also measured
7.82	< 4.00	–	CC[C@@H]1OCC(=O)[C@H]1NC(=O)[C@H](CC(C)(C)C(C)C)NC(=O)c1ccoc1 [CAP8-Hybrid3/drawing 68, Furan-3-carboxylic acid[3,3,4-trimethyl-1S-(2S-ethyl-4-oxo-tetrahydrofuran-3-ylcarbamoyl)pentyl]amide]	Ki (Mammalian Cathepsin S): 0.015 µM; pKi (Mammalian Cathepsin S; read-out: Ki mammalian cath S): 7.82; pKi (Murine Cathepsin S; read-out: Ki murine cath S): 6.83; pKi (Rat Cathepsin S; read-out: Ki rat cath S): 6.57; pKi (Mammalian Cathepsin L; read-out: Ki cathepsin L): < 4.00; pKi (Mammalian Cathepsin K; read-out: Ki cathepsin K): 5.26
7.00	< 4.00	5.14	C[C@@H]1OCC(=O)[C@H]1NC(=O)[C@H](CC(C)(C)C)NC(=O)c1ccoc1 [CAP8-L-tBu-Ala/drawing 71, Furan-3-carboxylic acid[3,3-dimethyl-1S-(2S-methyl-4-oxo-tetrahydrofuran-3S-ylcarbamoyl)butyl]amide]	Ki (Mammalian Cathepsin S): 0.13 µM; Ki (Murine Cathepsin S): 0.1 µM; Ki (Rat Cathepsin S): 0.211 µM; bioavailability [1]: 58%
6.68	4.44	6.07	CC(C)(C)CC(NC(=O)c1ccoc1)C(=O)NC1COCC1=O [CAP8-L-tBu-Ala/drawing 72]	–
6.10	5.10	5.32	CC(C)C[C@H](NC(=O)N1CCOCC1)C(=O)N[C@H]1C(=O)CO[C@H]1C [CAP9-L-Leu/drawing 70]	–
6.11	4.31	4.46	CC(C)CC[C@H](NC(=O)N1CCOCC1)C(=O)N[C@@H]1C(=O)CO[C@@H]1C [CAP9-L-hLeu/drawing 69]	–
6.15	< 4.00	< 4.00	CC(C)CC[C@H](NC(=O)N1CCOCC1)C(=O)N[C@H]1C(=O)CO[C@H]1C [CAP9-L-hLeu/drawing 70]	–
6.28	< 4.00	< 4.00	CC(C)CC[C@H](NC(=O)N1CCOCC1)C(=O)N[C@@H]1C(=O)CO[C@H]1C [CAP9-L-hLeu/drawing 71]	–
6.24	4.52	5.38	C[C@H]1OCC(=O)[C@H]1NC(=O)[C@H](CC(C)(C)C)NC(=O)N1CCOCC1 [CAP9-L-tBu-Ala/drawing 69]	–
5.89	6.15	5.52	CCn1nc(C)cc1C(=O)N[C@@H](CC(C)C)C(=O)N[C@@H]1C(=O)CO[C@@H]1C [CAP10-L-Leu/drawing 69]	–
6.47	6.34	< 4.00	CCn1nc(C)cc1C(=O)N[C@@H](Cc1ccc(O)cc1)C(=O)N[C@H]1C(=O)CO[C@H]1C [CAP10-L-Tyr/drawing 70]	–
5.39	6.35	< 4.00	CCn1nc(C)cc1C(=O)N[C@@H](Cc1ccc(O)cc1)C(=O)N[C@@H]1C(=O)CO[C@H]1C [CAP10-L-Tyr/drawing 71]	–
5.43	7.00	< 4.00	CCn1nc(C)cc1C(=O)NC(Cc1ccc(O)cc1)C(=O)NC1COCC1=O [CAP10-L-Tyr/drawing 72]	–
5.43	7.00	< 4.00	CCn1nc(C)cc1C(=O)N[C@@H](Cc1ccc(O)cc1)C(=O)N[C@@H]1COCC1=O [CAP10-L-Tyr/drawing 73]	–
7.02	4.26	5.81	CC1OCC(=O)C1NC(=O)C(CC(C)(C)C)NC(=O)c1ccsc1 [CAP11-L-tBu-Ala/drawing 71]	Ki (Mammalian Cathepsin S): 0.095 µM; Ki (Murine Cathepsin S): 0.048 µM; Ki (Rat Cathepsin S): 0.084 µM
–	–	–	CC[C@@H]1OCC(=O)[C@H]1NC(=O)[C@H](CC(C)(C)C)NC(=O)c1ccoc1 [drawing 79/drawing 78 X = O]	Ki (Mammalian Cathepsin S): 0.053 µM; Ki (Murine Cathepsin S): 0.039 µM; Ki (Rat Cathepsin S): 0.058 µM
